Test results reported in patent publication US20100099561A1, “HETEROBICYCLIC ALKYLTHIO-BRIDGED ISOXAZOLINES” (E.I. DU PONT DE NEMOURS AND COMPANY, priority 2008, published 2010).

Key:
Assay type in all cases: in vivo
[1] = test system: morningglory (Ipomoea spp.); assay: Test A preemergence, morningglory; details: 0 to 100 scale (0 no effect, 100 complete control)
How it was run: (§1)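 Sow seeds in loam–sand blend; spray soil directly (pre) and treat emerged one- to two-leaf plants 2–10 cm tall (post) with compound in surfactant-containing non-phytotoxic solvent. Keep in greenhouse about ten days. Score injury visually against controls from 0 to 100.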

rice (Oryza sativa) = assay: Test B flooded paddy test, rice; details: Flood, scale 0 to 100
How it was run: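 Paddy-water application to 2-leaf plants in pots held under 3 cm of flooding; response is a 0–100 visual control rating against controls after 13 to 15 days, and a dash marks a missing result.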

[2] = test system: woolly cupgrass (Eriochloa villosa); assay: Test B preemergence, woolly cupgrass; details: scale 0 to 100
How it was run: (§2)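 Visual injury rating, 0 (no effect) to 100 (complete control), made versus controls after 13 to 15 days in the greenhouse. Compounds were applied preemergence in a surfactant-containing non-phytotoxic solvent to seeds planted in loam/sand soil.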

[3] = test system: pigweed (Amaranthus retroflexus); assay: Test A postemergence, pigweed; details: 0 to 100 scale (0 no effect, 100 complete control)
How it was run: as §1

[4] = test system: goosegrass (Eleusine indica); assay: Test B preemergence, goosegrass; details: scale 0 to 100
How it was run: as §2

[5] = test system: large crabgrass (Digitaria sanguinalis); assay: Test B preemergence, large crabgrass; details: scale 0 to 100
How it was run: as §2

[6] = test system: Italian ryegrass (Lolium multiflorum); assay: Test B preemergence, Italian ryegrass; details: Preemergence, scale 0 to 100
How it was run: as §2

[7] = test system: velvetleaf (Abutilon theophrasti); assay: Test A postemergence, velvetleaf; details: 0 to 100 scale (0 no effect, 100 complete control)
How it was run: as §1

[8] = test system: ragweed (common ragweed, Ambrosia elatior); assay: Test B preemergence, ragweed; details: scale 0 to 100
How it was run: as §2

[9] = test system: bermudagrass (Cynodon dactylon); assay: Test B preemergence, bermudagrass; details: scale 0 to 100
How it was run: as §2

[10] = test system: wheat (Triticum aestivum); assay: Test A postemergence, wheat; details: 0 to 100 scale (0 no effect, 100 complete control)
How it was run: as §1

[11] = test system: wheat (Triticum aestivum); assay: Test A preemergence, wheat; details: 0 to 100 scale (0 no effect, 100 complete control)
How it was run: as §1

corn (Zea mays) = assay: Test B preemergence, corn; details: scale 0 to 100
How it was run: as §2

[12] = test system: blackgrass (Alopecurus myosuroides); assay: Test B preemergence, blackgrass; details: scale 0 to 100
How it was run: as §2

[13] = test system: morningglory (Ipomoea spp.); assay: Test A postemergence, morningglory; details: 0 to 100 scale (0 no effect, 100 complete control)
How it was run: as §1

[14] = test system: morningglory (Ipomoea coccinea); assay: Test B preemergence, morningglory; details: scale 0 to 100
How it was run: as §2

[15] = test system: lambsquarters (Chenopodium album); assay: Test B preemergence, lambsquarters; details: scale 0 to 100
How it was run: as §2

[16] = test system: large crabgrass (Digitaria sanguinalis); assay: Test A postemergence, large crabgrass; details: 0 to 100 scale (0 no effect, 100 complete control)
How it was run: as §1

[17] = test system: wheat (Triticum aestivum); assay: Test B preemergence, wheat; details: Preemergence, scale 0 to 100
How it was run: as §2

## CC1(C)CC(S(=O)(=O)Cc2c(C(F)(F)F)nc3n(c2=O)CCO3)=NO1 [Compound 2, 6-[[(4,5-dihydro-5,5-dimethyl-3-isoxazolyl)sulfonyl]methyl]-2,3-dihydro-7-(trifluoromethyl)-5H-oxazolo[3,2-α]pyrimidin-5-one]
[1]; 125 g ai/ha
  Plant response rating, Morningglory: 0
[1]; 500 g ai/ha
  Plant response rating, Morningglory: 80
Rice (Oryza sativa); 62 g ai/ha
  Plant response rating, Rice: 0
Rice (Oryza sativa); 250 g ai/ha
  Plant response rating, Rice: 0
[2]; 8 g ai/ha
  Plant response rating, Cupgrass, Woolly: 0
[2]; 16 g ai/ha
  Plant response rating, Cupgrass, Woolly: 75
[2]; 31 g ai/ha
  Plant response rating, Cupgrass, Woolly: 75
[2]; 62 g ai/ha
  Plant response rating, Cupgrass, Woolly: 95
[3]; 125 g ai/ha
  Plant response rating, Pigweed: 20
[3]; 500 g ai/ha
  Plant response rating, Pigweed: 60
[4]; 8 g ai/ha
  Plant response rating, Goosegrass: 0
[4]; 16 g ai/ha
  Plant response rating, Goosegrass: 65
[4]; 31 g ai/ha
  Plant response rating, Goosegrass: 75
[4]; 62 g ai/ha
  Plant response rating, Goosegrass: 80
[5]; 8 g ai/ha
  Plant response rating, Crabgrass, Large: 0
[5]; 16 g ai/ha
  Plant response rating, Crabgrass, Large: 65
[5]; 31 g ai/ha
  Plant response rating, Crabgrass, Large: 80
[5]; 62 g ai/ha
  Plant response rating, Crabgrass, Large: 90
[6]; 16 g ai/ha
  Plant response rating, Ryegrass, Italian: 0
[6]; 31 g ai/ha
  Plant response rating, Ryegrass, Italian: 0
[6]; 62 g ai/ha
  Plant response rating, Ryegrass, Italian: 0
[7]; 125 g ai/ha
  Plant response rating, Velvetleaf: 30
[7]; 500 g ai/ha
  Plant response rating, Velvetleaf: 60
[8]; 31 g ai/ha
  Plant response rating, Ragweed: 0
[8]; 62 g ai/ha
  Plant response rating, Ragweed: 20
[9]; 8 g ai/ha
  Plant response rating, Bermudagrass: 0
[9]; 16 g ai/ha
  Plant response rating, Bermudagrass: 0
[9]; 31 g ai/ha
  Plant response rating, Bermudagrass: 75
[9]; 62 g ai/ha
  Plant response rating, Bermudagrass: 85
[10]; 125 g ai/ha
  Plant response rating, Wheat: 0
[10]; 500 g ai/ha
  Plant response rating, Wheat: 60
[11]; 125 g ai/ha
  Plant response rating, Wheat: 10
[11]; 500 g ai/ha
  Plant response rating, Wheat: 60
Corn (Zea mays); 8 g ai/ha
  Plant response rating, Corn: 0
Corn (Zea mays); 16 g ai/ha
  Plant response rating, Corn: 0
Corn (Zea mays); 31 g ai/ha
  Plant response rating, Corn: 0
Corn (Zea mays); 62 g ai/ha
  Plant response rating, Corn: 20
[12]; 8 g ai/ha
  Plant response rating, Blackgrass: 0
[12]; 16 g ai/ha
  Plant response rating, Blackgrass: 0
[12]; 31 g ai/ha
  Plant response rating, Blackgrass: 0
[12]; 62 g ai/ha
  Plant response rating, Blackgrass: 50
[13]; 125 g ai/ha
  Plant response rating, Morningglory: 30
[13]; 500 g ai/ha
  Plant response rating, Morningglory: 70
[14]; 8 g ai/ha
  Plant response rating, Morningglory: 0
[14]; 16 g ai/ha
  Plant response rating, Morningglory: 0
[14]; 31 g ai/ha
  Plant response rating, Morningglory: 0
[14]; 62 g ai/ha
  Plant response rating, Morningglory: 0
[15]; 8 g ai/ha
  Plant response rating, Lambsquarters: 0
[15]; 31 g ai/ha
  Plant response rating, Lambsquarters: 0
[15]; 62 g ai/ha
  Plant response rating, Lambsquarters: 0
[16]; 125 g ai/ha
  Plant response rating, Crabgrass, Large: 60
[16]; 500 g ai/ha
  Plant response rating, Crabgrass, Large: 90
[17]; 16 g ai/ha
  Plant response rating, Wheat: 0
[17]; 31 g ai/ha
  Plant response rating, Wheat: 0
[17]; 62 g ai/ha
  Plant response rating, Wheat: 0
